Experimental findings from patent US20190374533A1, “COMPOUNDS AND METHODS FOR INHIBITING NHE-MEDIATED ANTIPORT IN THE TREATMENT OF DISORDERS ASSOCIATED WITH FLUID RETENTION OR SALT OVERLOAD AND GASTROINTESTINAL TRACT DISORDERS” (Ardelyx, Inc., priority 2008, published 2019) are described below.

What is called Papp A→B is how fast a substance crosses the layer from the apical side.

This data set can be described thus: Parallel artificial membrane permeability assay (PAMPA). Particulars: pH 7.4.
`C/C(=C\c1cc(F)c(Oc2ccc(S(=O)(=O)NC(CC(=O)O)C(=O)O)cc2)c(F)c1)C(=O)N=C(N)N` (centres unmarked) [Example 59, (E)-2-(4-(4-(3-(diaminomethyleneamino)-2-methyl-3-oxoprop-1-enyl)-2,6-difluorophenoxy)phenylsulfonamido)succinic acid]: the Papp A→B at 3 h, 20 uM is 0.1 ×10⁻⁶ cm/s.
The result for `C/C(=C\c1cc(F)c(Oc2ccc(S(=O)(=O)Nc3ccc(CP(=O)(O)O)cc3)cc2)c(F)c1)C(=O)N=C(N)N` [Example 53, (E)-4-(4-(4-(3-(diaminomethyleneamino)-2-methyl-3-oxoprop-1-enyl)-2,6-difluorophenoxy)phenylsulfonamido)benzylphosphonic acid] reads 1.6 ×10⁻⁶ cm/s.
Regarding `NC(N)=Nc1nc(-c2ccc(N3CCN(CCCC(=O)O)CC3)cc2)c2cc(Cl)ccc2n1` [Example 73, 4-(4-(4-(6-chloro-2-(diaminomethyleneamino)quinazolin-4-yl)phenyl)piperazin-1-yl)butanoic acid], the Papp A→B at 3 h, 20 uM was found to be 0.27 ×10⁻⁶ cm/s.
With `C/C(=C\c1cc(F)c(Oc2ccc(S(=O)(=O)NCCOCCOCCOCCNS(=O)(=O)c3ccc(Oc4c(F)cc(/C=C(\C)C(=O)N=C(N)N)cc4F)cc3)cc2)c(F)c1)C(=O)N=C(N)N` [Example 44, N,N′-(2,2′-(2,2′-oxybis(ethane-2,1-diyl)bis(oxy))bis(ethane-2,1-diyl))bis[(E)-N-(diaminomethylene)-3-(3,5-difluoro-4-(4-sulfamoylphenoxy)phenyl)-2-methylacrylamide]] the figure was 0.1 ×10⁻⁶ cm/s; with `CN1Cc2c(Cl)cc(Cl)cc2C(c2ccc(S(=O)(=O)Nc3ccc(CP(=O)(O)O)cc3)cc2)C1` (centres unmarked) [Example 13, (4-(4-(6,8-dichloro-2-methyl-1,2,3,4-tetrahydroisoquinolin-4-yl)phenylsulfonamido)phenyl)methylphosphonic acid], 0.3 ×10⁻⁶ cm/s; with `CN1Cc2c(Cl)cc(Cl)cc2C(c2ccc(S(=O)(=O)NCCCCCCCCCCCCNS(=O)(=O)c3ccc(C4CN(C)Cc5c(Cl)cc(Cl)cc54)cc3)cc2)C1` (centres unmarked) [Example 23, N,N′-(dodecane-1,12-diyl)bis(4-(6,8-dichloro-2-methyl-1,2,3,4-tetrahydroisoquinolin-4-yl)benzenesulfonamide)], less than 0.04 ×10⁻⁶ cm/s.
As to `CN1Cc2c(Cl)cc(Cl)cc2C(c2ccc(NC(=O)N[C@@H](CC(=O)O)C(=O)O)cc2)C1` (stereo partly drawn) [Example 34, (2S)-2-(3-(4-(6,8-dichloro-2-methyl-1,2,3,4-tetrahydroisoquinolin-4-yl)phenyl)ureido)succinic acid], the Papp A→B at 3 h, 20 uM was 0.2 ×10⁻⁶ cm/s.
With `CN1Cc2c(Cl)cc(Cl)cc2C(c2ccc(S(=O)(=O)N(CC(=O)O)CP(=O)(O)O)cc2)C1` (centres unmarked) [Example 72, 2-(4-(6,8-dichloro-2-methyl-1,2,3,4-tetrahydroisoquinolin-4-yl)-N-(phosphonomethyl)phenylsulfonamido)acetic acid] the figure was 0.2 ×10⁻⁶ cm/s; with `C/C(=C\c1cc(F)c(Oc2ccc(S(=O)(=O)N(CC(=O)O)CP(=O)(O)O)cc2)c(F)c1)C(=O)N=C(N)N` [Example 57, (E)-2-(4-(4-(3-(diaminomethyleneamino)-2-methyl-3-oxoprop-1-enyl)-2,6-difluorophenoxy)-N-(phosphonomethyl)phenylsulfonamido)acetic acid], 1.65 ×10⁻⁶ cm/s.
`C/C(=C\c1cc(F)c(Oc2ccc(S(=O)(=O)NCCOCCOCCOCCn3cc(CO)nn3)cc2)c(F)c1)C(=O)N=C(N)N` [Example 48, (E)-N-(diaminomethylene)-3-(3,5-difluoro-4-(4-(N-(2-(2-(2-(2-(4-(hydroxymethyl)-1H-1,2,3-triazol-1-yl)ethoxy)ethoxy)ethoxy)ethyl)sulfamoyl)phenoxy)phenyl)-2-methylacrylamide] returned a Papp A→B at 3 h, 20 uM of 0.9 ×10⁻⁶ cm/s.
With `CN1Cc2c(Cl)cc(Cl)cc2C(c2ccc(S(=O)(=O)NCc3ccc(CNS(=O)(=O)c4ccc(C5CN(C)Cc6c(Cl)cc(Cl)cc65)cc4)cc3)cc2)C1` (centres unmarked) [Example 26, N,N′-(1,4-phenylenebis(methylene))bis(4-(6,8-dichloro-2-methyl-1,2,3,4-tetrahydroisoquinolin-4-yl)benzenesulfonamide)] the figure was less than 0.02 ×10⁻⁶ cm/s.
